EP1497262B1, “ACYL-4-CARBOXYPHENYLUREA DERIVATIVES, METHOD FOR PRODUCTION AND USE THEREOF” (Sanofi-Aventis Deutschland GmbH, priority 2002, dated 2003)

Target: T1, Humane Glykogenphosphorylase a (Homo sapiens, UniProt P06737)
T1 sequence (P06737 1-847): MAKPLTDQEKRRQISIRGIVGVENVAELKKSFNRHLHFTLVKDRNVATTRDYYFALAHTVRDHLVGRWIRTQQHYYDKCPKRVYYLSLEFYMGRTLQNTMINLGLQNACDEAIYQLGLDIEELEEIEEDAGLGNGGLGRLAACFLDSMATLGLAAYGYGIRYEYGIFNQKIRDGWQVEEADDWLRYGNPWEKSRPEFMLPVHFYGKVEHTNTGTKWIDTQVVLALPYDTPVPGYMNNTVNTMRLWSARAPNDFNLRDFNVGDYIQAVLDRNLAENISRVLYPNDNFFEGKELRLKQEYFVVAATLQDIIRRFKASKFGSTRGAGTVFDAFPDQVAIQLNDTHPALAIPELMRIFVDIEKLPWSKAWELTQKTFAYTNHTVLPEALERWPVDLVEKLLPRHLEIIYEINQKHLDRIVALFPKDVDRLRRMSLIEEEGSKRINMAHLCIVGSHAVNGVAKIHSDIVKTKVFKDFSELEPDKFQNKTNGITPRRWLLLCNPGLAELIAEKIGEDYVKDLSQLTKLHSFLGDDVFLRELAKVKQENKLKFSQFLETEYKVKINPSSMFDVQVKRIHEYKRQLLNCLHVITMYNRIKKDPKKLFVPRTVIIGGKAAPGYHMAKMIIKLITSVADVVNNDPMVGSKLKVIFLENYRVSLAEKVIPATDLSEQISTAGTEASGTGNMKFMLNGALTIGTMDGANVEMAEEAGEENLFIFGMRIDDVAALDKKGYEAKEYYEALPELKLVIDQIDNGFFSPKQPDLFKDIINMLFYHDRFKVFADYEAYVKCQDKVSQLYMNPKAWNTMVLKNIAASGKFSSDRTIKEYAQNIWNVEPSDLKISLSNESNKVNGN
Assay: Glycogen phosphorylase a activity test (reverse direction, release of inorganic phosphate)
Type: biochemical
Settings: 10 µM test substance, in vitro, 40 min at room temperature, absorbance at 820 nm; for inhibition at 10 µM: read-out: % Inhibition bei 10 µM
Procedure: Glykogenphosphorylase a Aktivitätstest
Der Effekt von Verbindungen auf die Aktivität der aktiven Form der Glykogenphosphorylase (GPa) wurde in der umgekehrten Richtung, durch Verfolgen der Glykogensynthese aus Glukose-1-Phosphat an Hand der Bestimmung der Freisetzung von anorganischem Phosphat, gemessen.
Prüfsubstanzen wurden als 10 mM Lösung in DMSO zubereitet und auf 50 µM mit Pufferlösung T verdünnt. Zu 10 µl dieser Lösung wurden 10 µl 37,5 mM Glukose, gelöst in Pufferlösung T und 5 mg/mL Glykogen, sowie 10 µl einer Lösung von humaner Glykogenphosphorylase a ([…]) und 20 µl Glukose-1-Phosphat, 2,5 mM zugegeben. Der basale Wert der Glykogenphosphorylase a Aktivität in Abwesenheit von Prüfsubstanz wurde durch Zugabe von 10 µl Pufferlösung T (0,1 % DMSO) bestimmt. […] Zur Bestimmung der Hintergrundsabsorption wurde in einem separaten Ansatz die Stop-Lösung unmittelbar nach Zugabe der Glukose-1-Phosphatlösung zugegeben.
Dieser Test wurde mit einer Konzentrationen von 10 µM der Prüfsubstanz durchgeführt, um die jeweilige Hemmung der Glykogenphosphorylase a in vitro durch die Prüfsubstanz zu bestimmen. Tabelle 2: Biologische Aktivität

Structure (SMILES)	inhibition at 10 µM	% Inhibition bei 10 µM
CCOC(=O)c1ccc(NC(=O)NC(=O)c2c(F)cccc2F)cc1 [Vergleichsbeispiel A, reference compound]	3%	
NC(CO)(CO)CO.O=C(NC(=O)c1cc(F)c(F)cc1Cl)Nc1ccc(C(=O)O)cc1OC(F)(F)F [compound 49, 4-[3-(2-Chlor-4,5-difluor-benzoyl)-ureido]-3-trifluoromethoxy-benzoesäure TRIS-Salz]		103%

Now from value to compound, other results behind:

inhibition at 10 µM	Structure (SMILES)	% Inhibition bei 10 µM
71%	O=C(NC(=O)c1ccccc1Cl)Nc1ccc(C(=O)O)cc1[N+](=O)[O-] [compound 1]	
85%	O=C(NC(=O)c1ccc(Cl)cc1Cl)Nc1ccc(C(=O)O)cc1[N+](=O)[O-] [compound 2]	
80%	O=C(NC(=O)c1ccc(Cl)cc1Cl)Nc1ccc(C(=O)O)cc1O [compound 5]	
